Reference: patent publication US7317028B2, “Cell differentiation inducer” (Schering Aktiengesellschaft, priority 1996, dated 2008)

Key:
[1] = test system: A2780 cells; experiment: Test for induction of differentiation in A2780 cells (ALP activity, ALPmin); format: cell-based, human; conditions: Homo sapiens, 72 h; A2780 cells, 3 days incubation; minimum concentration of the drug inducing increase of ALP activity
Method: Increase of alkaline phosphatase (ALP) activity is known as an indicator for differentiation of human colon cancer cells. […] Thus, differentiation inducing action was evaluated using ALP activity as an indicator.
To each well of a 96-well plate was placed 0.1 mL of A2780 cells (15,000 cells/well) and the next day was added 0.1 mL of a sequential dilute of test solution with the medium. […] The reaction was quenched with 0.05 mL/well of 3N sodium hydroxide aq. For each well, an absorbance at 405 nm was measured to determine the minimum concentration of the drug inducing increase of ALP activity (ALPmin).

| Compound | minimal effective concentration [1] [µM] | melting point |
| --- | --- | --- |
| Nc1cccc(CC(=O)NCc2ccc(C(=O)Nc3ccccc3N)cc2)c1 [Example 28, N-(2-aminophenyl)-4-[N-(3-aminophenyl)acetylaminomethyl]benzamide] | 10 | 171 to 176 °C |
| Nc1ccccc1NC(=O)c1ccc(NC(=O)CCc2cccnc2)cc1 [Example 112, N-(2-aminophenyl)-4-[[3-(pyridin-3-yl)propanoyl]amino]benzamide] | 0.1 | 184 to 186 °C |
| CN(CC(=O)Nc1ccc(C(=O)Nc2ccccc2N)cc1)Cc1cccnc1 [Example 119, N-(2-aminophenyl)-4-[[N-(pyridin-3-yl)methyl-N-methylamino]acetylamino]benzamide] | 3 | 154 to 155 °C |
| Nc1ccccc1NC(=O)c1ccc(C(=O)NCc2ccccc2)cc1 [Example 132, N-(2-aminophenyl)-4-(N-benzylamino)carbonylbenzamide] | 10 | 239 to 241 °C (dec.) |
| Nc1ccc(CC(=O)Nc2ccc(C(=O)Nc3ccccc3N)cc2)cc1 [Example 106, N-(2-aminophenyl)-4-[(4-aminophenylacetyl)amino]benzamide] | 1 | 219 to 226 °C (dec.) |
| Nc1ccccc1NC(=O)c1ccc(CNC(=O)c2ccno2)cc1 [Example 25, N-(2-aminophenyl)-4-[N-(isoxazol-5-yl)carbonylaminomethyl]benzamide] | 3 | 183 to 185 °C (dec.) |
| Cc1cccc(C(=O)NCc2ccc(C(=O)Nc3ccccc3N)cc2)n1 [Example 13, N-(2-aminophenyl)-4-[N-(6-methylpicolinoyl)aminomethyl]benzamide] | 1 | 172 to 173 °C |
| Nc1ccccc1NC(=O)c1ccc(CNC(=O)c2ccc3ncccc3c2)cc1 [Example 37, N-(2-aminophenyl)-4-[N-(quinolin-6-yl)carbonylaminomethyl]benzamide] | 1 | 209 to 210 °C |
| Nc1ccccc1NC(=O)c1ccc(CNC(=O)c2ccc[nH]2)cc1 [Example 23, N-(2-aminophenyl)-4-[N-(pyrrol-2-yl)carbonylaminomethyl]benzamide] | 1 | 216 to 220 °C (dec.) |
| Nc1ccccc1NC(=O)c1ccc(NC(=O)CNC(=O)c2cccnc2)cc1 [Example 127, N-(2-aminophenyl)-4-[N-(N-nicotinoylamino)acetylamino]benzamide] | 0.3 | 218 to 220 °C (dec.) |
| CN(C)c1ccc(C(=O)NCc2ccc(C(=O)Nc3ccccc3N)cc2)cc1 [Example 8, N-(2-aminophenyl)-4-[N-[4-(N,N-dimethyl)aminobenzoyl]aminomethyl]benzamide] | 1 | 216 to 219 °C (dec.) |
| Nc1ccccc1NC(=O)c1ccc(CNC(=O)c2ccccc2Cl)cc1 [Example 2, N-(2-aminophenyl)-4-[N-(2-chlorobenzoyl)aminomethyl]benzamide] | 3 | 201 to 204 °C (dec.) |
| Nc1ccccc1NC(=O)c1ccc(CNC(=O)OCc2ccc(-n3ccnc3)cc2)cc1 [Example 50, N-(2-aminophenyl)-4-[N-(4-(imidazol-1-yl)benzyl)oxycarbonylaminomethyl]benzamide] | 1 | 195 to 198 °C |
| Nc1ccccc1NC(=O)c1ccc(C(=O)NCCc2ccccc2)cc1 [Example 133, N-(2-aminophenyl)-4-[N-(2-phenylethyl)amino]carbonylbenzamide] | 3 | 237 to 240 °C (dec.) |
| COc1cccc(C(=O)NCc2ccc(C(=O)Nc3ccccc3N)cc2)c1 [Example 5, N-(2-aminophenyl)-4-[N-(3-methoxybenzoyl)aminomethyl]benzamide] | 1 | 182 to 185 °C |
| CC(OCc1cccnc1)C(=O)Nc1ccc(C(=O)Nc2ccccc2N)cc1 (stereo not drawn) [Example 131, N-(2-aminophenyl)-4-[N-[2-(pyridin-3-yl)methoxypropionyl]amino]benzamide] | 0.3 | 144 to 148 °C |
| Nc1ccccc1NC(=O)c1ccc(NC(=O)COc2ccc([N+](=O)[O-])cc2)cc1 [Example 134, N-(2-aminophenyl)-4-[N-(4-nitrophenoxyacetyl)amino]benzamide] | 3 | 212 to 215 °C (dec.) |
| Cc1ncccc1C(=O)NCc1ccc(C(=O)Nc2ccccc2N)cc1 [Example 15, N-(2-aminophenyl)-4-[N-(2-methylnicotinoyl)aminomethyl]benzamide] | 3 | 191 to 194 °C (dec.) |

| Compound | minimal effective concentration [1] [µM] | melting point |
| --- | --- | --- |
| Nc1ccccc1NC(=O)c1ccc(CNC(=O)c2cc3ccncc3o2)cc1 [Example 39, N-(2-aminophenyl)-4-[N-(furo[2,3-c]pyridin-2-yl)carbonylaminomethyl]benzamide] | 0.1 | 210 °C (dec.) |
| CN(C)c1ccc(CC(=O)Nc2ccc(C(=O)Nc3ccccc3N)cc2)cc1 [Example 108, N-(2-aminophenyl)-4-[[4-(N,N-dimethylamino)phenylacetyl]amino]benzamide] | 3 | 140 °C |
| CN(C(=O)COCc1cccnc1)c1ccc(C(=O)Nc2ccccc2N)cc1 [Example 125, N-(2-aminophenyl)-4-[N-methyl-N-(pyridin-3-yl)methoxyacetylamino]benzamide] | 0.1 | 180 to 183 °C (dec.) |
| Nc1ccccc1NC(=O)c1ccc(CNC(=O)CCc2cccnc2)cc1 [Example 30, N-(2-aminophenyl)-4-[N-[3-(pyridin-3-yl)propionyl]aminomethyl]benzamide] | 0.1 | 183 to 186 °C |
| Cc1ccc(C(=O)NCc2ccc(C(=O)Nc3ccccc3N)cc2)cn1 [Example 16, N-(2-aminophenyl)-4-[N-(6-methylnicotinoyl)aminomethyl]benzamide] | 3 | 186 to 190 °C (dec.) |
| Cc1ncccc1COC(=O)NCc1ccc(C(=O)Nc2ccccc2N)cc1 [Example 56, N-(2-aminophenyl)-4-[N-(2-methylpyridin-3-yl)methoxycarbonylaminomethyl]benzamide] | 3 | 164 to 165 °C |
| Nc1ccccc1NC(=O)c1ccc(CNC(=O)OCc2ccncc2)cc1 [Example 60, N-(2-aminophenyl)-4-[N-(pyridin-4-yl)methoxycarbonylaminomethyl]benzamide] | 3 | 180 to 183 °C |
| Nc1ccccc1NC(=O)c1ccc(NC(=O)Cc2ccc([N+](=O)[O-])cc2)cc1 [Example 104, N-(2-aminophenyl)-4-[(4-nitrophenylacetyl)amino]benzamide] | 1 | 222 to 226 °C |
| CC(Oc1cccnc1)C(=O)Nc1ccc(C(=O)Nc2ccccc2N)cc1 (stereo not drawn) [Example 129, N-(2-aminophenyl)-4-[N-[2-(pyridin-3-yl)oxypropionyl]amino]benzamide] | 1 | 193 to 196 °C |
| Nc1ccccc1NC(=O)c1ccc(CNC(=S)OCc2cccnc2)cc1 [Example 88, N-(2-aminophenyl)-4-[N-(pyridin-3-yl)methoxythiocarbonylaminomethyl]benzamide] | 0.1 | 154 to 156 °C (dec.) |
| Nc1ccccc1NC(=O)c1ccc(CCC(=O)NCc2cccnc2)cc1 [Example 97, N-(2-aminophenyl)-4-[2-[N-(3-picolyl)aminocarbonyl]ethyl]benzamide] | 0.1 | 168 to 170 °C |
| Nc1ccccc1NC(=O)c1ccc(CNC(=O)OCc2ccccn2)cc1 [Example 51, N-(2-aminophenyl)-4-[N-(pyridin-2-yl)methoxycarbonylaminomethyl]benzamide] | 1 | 166 to 167 °C |
| Nc1ccccc1NC(=O)c1ccc(NC(=O)CC(=O)Nc2cccnc2)cc1 [Example 122, N-(2-aminophenyl)-4-[3-[N-(pyridin-3-yl)amino]-1,3-dioxopropylamino]benzamide] | 0.03 | 196 °C (dec.) |
| Nc1ccccc1NC(=O)c1ccc(NC(=O)CCC(=O)c2cccnc2)cc1 [Example 121, N-(2-aminophenyl)-4-[4-(pyridin-3-yl)-1,4-dioxobutylamino]benzamide] | 3 | 190 to 194 °C |
| Nc1ccccc1NC(=O)c1ccc(NC(=O)CN(Cc2cccnc2)C(=O)C(F)(F)F)cc1 [Example 114, N-(2-aminophenyl)-4-[[N-(pyridin-3-yl)methyl-N-trifluoroacetylamino]acetylamino]benzamide] | 3 | 145 °C (dec.) |
| Nc1ccccc1NC(=O)c1ccc(CNC(=O)c2cc3ncccc3o2)cc1 [Example 38, N-(2-aminophenyl)-4-[N-(furo[3,2-b]pyridin-2-yl)carbonylaminomethyl]benzamide] | 3 | 191 °C (dec.) |
| Nc1ccccc1NC(=O)c1ccc(CNC(=O)OCCc2ccccn2)cc1 [Example 52, N-(2-aminophenyl)-4-[N-[2-(pyridin-2-yl)ethoxycarbonyl]aminomethyl]benzamide] | 1 | 146 to 148 °C |
| Cl.Nc1ccccc1NC(=O)c1ccc(CNC(=O)c2ccccc2[N+](=O)[O-])cc1 [Example 3, N-(2-aminophenyl)-4-[N-(2-nitrobenzoyl)aminomethyl]benzamide hydrochloride] | 3 | 210 to 212 °C (dec.) |
